From paper PMC7291858, “An Enhanced Variant Designed From DLP4 Cationic Peptide Against Staphylococcus aureus CVCC 546” (Frontiers in Microbiology, 2020)
Peptide text beside a SMILES is read from it.

Each molecule was assayed on S. aureus ATCC 43300. Conditions: microtiter, serial 2-fold dilutions, 37°C, 16∼20 h, triplicate; – = no activity.
Format: cell-based, Staphylococcus aureus
Experimental: The minimal inhibitory concentration (MIC) was evaluated by a microtiter plate assay ([Wiegand et al., 2008]). Serial 2-fold dilutions of test peptides were placed into a 96-well plate containing identical bacterial inoculum and incubated at 37°C for 16∼20 h. Vancomycin was used as antibiotic control. The MIC value was defined as the lowest peptide concentration where no visible growth occurred. All tests were made in triplicate.

SMILES	A1 (MIC against S. aureus ATCC 43300) [µg/mL]
CC[C@H](C)[C@@H]1NC(=O)[C@@H]2CSSC[C@@H](C(=O)N[C@@H](CCCNC(=N)N)C(=O)N[C@@H](CCCCN)C(=O)O)NC(=O)[C@H](CC(N)=O)NC(=O)[C@@H]3CSSC[C@H](NC(=O)[C@H](C)NC(=O)[C@H](C)NC(=O)[C@H](Cc4c[nH]cn4)NC(=O)CNC(=O)[C@H](C(C)C)NC(=O)[C@H](CCCCN)NC(=O)[C@H](Cc4ccccc4)NC(=O)[C@@H]4CCCN4C(=O)[C@H](CO)NC(=O)[C@H](CC(C)C)NC(=O)[C@H]([C@@H](C)CC)NC(=O)[C@H](CC(=O)O)NC(=O)[C@@H](NC(=O)[C@@H](NC(=O)[C@H](C)N)[C@@H](C)O)CSSC[C@H](NC(=O)[C@H](Cc4c[nH]c5ccccc45)NC(=O)CNC(=O)CNC(=O)[C@H](CCCNC(=N)N)NC(=O)[C@H](CCCCN)NC(=O)CNC(=O)[C@H](CCCNC(=N)N)NC(=O)[C@H](C)NC1=O)C(=O)N[C@@H](CC(=O)O)C(=O)N[C@@H](CCCCN)C(=O)N[C@@H](CCCNC(=N)N)C(=O)N[C@@H](C)C(=O)N[C@@H](C(C)C)C(=O)N3)C(=O)N[C@@H](C)C(=O)N[C@@H](C)C(=O)N[C@@H](Cc1c[nH]cn1)C(=O)N2 [ID4] (HELM PEPTIDE1{A.T.C.D.I.L.S.P.F.K.V.G.H.A.A.C.A.A.H.C.I.A.R.G.K.R.G.G.W.C.D.K.R.A.V.C.N.C.R.K}$PEPTIDE1,PEPTIDE1,3:R3-30:R3|PEPTIDE1,PEPTIDE1,16:R3-36:R3|PEPTIDE1,PEPTIDE1,20:R3-38:R3$$$V2.0; N-terminus and C-terminus assumed; bridges inferred)	32
CC[C@H](C)[C@@H]1NC(=O)[C@@H]2CSSC[C@@H](C(=O)N[C@@H](CCCNC(=N)N)C(=O)N[C@@H](CCCCN)C(=O)O)NC(=O)[C@H](CC(N)=O)NC(=O)[C@@H]3CSSC[C@H](NC(=O)[C@H](C)NC(=O)[C@H](C)NC(=O)[C@H](Cc4c[nH]cn4)NC(=O)CNC(=O)[C@H](C(C)C)NC(=O)[C@H](CCCCN)NC(=O)[C@H](Cc4ccccc4)NC(=O)[C@@H]4CCCN4C(=O)[C@H](CO)NC(=O)[C@H]([C@@H](C)CC)NC(=O)[C@H](CC(C)C)NC(=O)[C@H](CC(=O)O)NC(=O)[C@@H](NC(=O)[C@@H](NC(=O)[C@H](C)N)[C@@H](C)O)CSSC[C@H](NC(=O)[C@H](Cc4c[nH]c5ccccc45)NC(=O)CNC(=O)CNC(=O)[C@H](CCCNC(=N)N)NC(=O)[C@H](CCCCN)NC(=O)CNC(=O)[C@H](CCCNC(=N)N)NC(=O)[C@H](C)NC1=O)C(=O)N[C@@H](CC(=O)O)C(=O)N[C@@H](CCCCN)C(=O)N[C@@H](CCCNC(=N)N)C(=O)N[C@@H](C)C(=O)N[C@@H](C(C)C)C(=O)N3)C(=O)N[C@@H](C)C(=O)N[C@@H](C)C(=O)N[C@@H](Cc1c[nH]cn1)C(=O)N2 [ID5] (HELM PEPTIDE1{A.T.C.D.L.I.S.P.F.K.V.G.H.A.A.C.A.A.H.C.I.A.R.G.K.R.G.G.W.C.D.K.R.A.V.C.N.C.R.K}$PEPTIDE1,PEPTIDE1,3:R3-30:R3|PEPTIDE1,PEPTIDE1,16:R3-36:R3|PEPTIDE1,PEPTIDE1,20:R3-38:R3$$$V2.0; N-terminus and C-terminus assumed; bridges inferred)	16
CC[C@H](C)[C@@H]1NC(=O)[C@@H]2CSSC[C@@H](C(=O)N[C@@H](CCCNC(=N)N)C(=O)N[C@@H](CCCCN)C(=O)O)NC(=O)[C@H](CC(N)=O)NC(=O)[C@@H]3CSSC[C@H](NC(=O)[C@H](C)NC(=O)[C@H](C)NC(=O)[C@H](Cc4c[nH]cn4)NC(=O)CNC(=O)[C@H](C(C)C)NC(=O)[C@H](CCCCN)NC(=O)[C@H](Cc4ccccc4)NC(=O)[C@H](CCCCN)NC(=O)[C@H](CO)NC(=O)[C@H](CC(C)C)NC(=O)[C@H](CC(C)C)NC(=O)[C@H](CC(=O)O)NC(=O)[C@@H](NC(=O)[C@@H](NC(=O)[C@H](C)N)[C@@H](C)O)CSSC[C@H](NC(=O)[C@H](Cc4c[nH]c5ccccc45)NC(=O)CNC(=O)CNC(=O)[C@H](CCCNC(=N)N)NC(=O)[C@H](CCCCN)NC(=O)CNC(=O)[C@H](CCCNC(=N)N)NC(=O)[C@H](C)NC1=O)C(=O)N[C@@H](CC(=O)O)C(=O)N[C@@H](CCCCN)C(=O)N[C@@H](CCCNC(=N)N)C(=O)N[C@@H](C)C(=O)N[C@@H](C(C)C)C(=O)N3)C(=O)N[C@@H](C)C(=O)N[C@@H](C)C(=O)N[C@@H](Cc1c[nH]cn1)C(=O)N2 [ID8] (HELM PEPTIDE1{A.T.C.D.L.L.S.K.F.K.V.G.H.A.A.C.A.A.H.C.I.A.R.G.K.R.G.G.W.C.D.K.R.A.V.C.N.C.R.K}$PEPTIDE1,PEPTIDE1,3:R3-30:R3|PEPTIDE1,PEPTIDE1,16:R3-36:R3|PEPTIDE1,PEPTIDE1,20:R3-38:R3$$$V2.0; N-terminus and C-terminus assumed; bridges inferred)	32
CC[C@H](C)[C@@H]1NC(=O)[C@@H]2CSSC[C@@H](C(=O)N[C@@H](CCCNC(=N)N)C(=O)N[C@@H](CCCCN)C(=O)O)NC(=O)[C@H](CC(N)=O)NC(=O)[C@@H]3CSSC[C@H](NC(=O)[C@H](C)NC(=O)[C@H](C)NC(=O)[C@H](Cc4c[nH]cn4)NC(=O)[C@H](CCCCN)NC(=O)[C@H](C(C)C)NC(=O)[C@H](CCCCN)NC(=O)[C@H](Cc4ccccc4)NC(=O)[C@@H]4CCCN4C(=O)[C@H](CO)NC(=O)[C@H](CC(C)C)NC(=O)[C@H](CC(C)C)NC(=O)[C@H](CC(=O)O)NC(=O)[C@@H](NC(=O)[C@@H](NC(=O)[C@H](C)N)[C@@H](C)O)CSSC[C@H](NC(=O)[C@H](Cc4c[nH]c5ccccc45)NC(=O)CNC(=O)CNC(=O)[C@H](CCCNC(=N)N)NC(=O)[C@H](CCCCN)NC(=O)CNC(=O)[C@H](CCCNC(=N)N)NC(=O)[C@H](C)NC1=O)C(=O)N[C@@H](CC(=O)O)C(=O)N[C@@H](CCCCN)C(=O)N[C@@H](CCCNC(=N)N)C(=O)N[C@@H](C)C(=O)N[C@@H](C(C)C)C(=O)N3)C(=O)N[C@@H](C)C(=O)N[C@@H](C)C(=O)N[C@@H](Cc1c[nH]cn1)C(=O)N2 [ID9] (HELM PEPTIDE1{A.T.C.D.L.L.S.P.F.K.V.K.H.A.A.C.A.A.H.C.I.A.R.G.K.R.G.G.W.C.D.K.R.A.V.C.N.C.R.K}$PEPTIDE1,PEPTIDE1,3:R3-30:R3|PEPTIDE1,PEPTIDE1,16:R3-36:R3|PEPTIDE1,PEPTIDE1,20:R3-38:R3$$$V2.0; N-terminus and C-terminus assumed; bridges inferred)	16
CC[C@H](C)[C@@H]1NC(=O)[C@@H]2CSSC[C@@H](C(=O)N[C@@H](CCCNC(=N)N)C(=O)N[C@@H](CCCCN)C(=O)O)NC(=O)[C@H](CC(N)=O)NC(=O)[C@@H]3CSSC[C@H](NC(=O)[C@H](C)NC(=O)[C@H](C)NC(=O)[C@H](Cc4c[nH]cn4)NC(=O)CNC(=O)[C@H](C(C)C)NC(=O)[C@H](CCCCN)NC(=O)[C@H](Cc4ccccc4)NC(=O)[C@@H]4CCCN4C(=O)[C@H](CO)NC(=O)[C@H](CC(C)C)NC(=O)[C@H](CC(C)C)NC(=O)[C@H](CC(=O)O)NC(=O)[C@@H](NC(=O)[C@@H](NC(=O)[C@H](C)N)[C@@H](C)O)CSSC[C@H](NC(=O)[C@H](Cc4c[nH]c5ccccc45)NC(=O)CNC(=O)CNC(=O)[C@H](CCCNC(=N)N)NC(=O)[C@H](CCCCN)NC(=O)CNC(=O)[C@H](CCCNC(=N)N)NC(=O)[C@H](C)NC1=O)C(=O)N[C@@H](CC(N)=O)C(=O)N[C@@H](CCCCN)C(=O)N[C@@H](CCCNC(=N)N)C(=O)N[C@@H](C)C(=O)N[C@@H](C(C)C)C(=O)N3)C(=O)N[C@@H](C)C(=O)N[C@@H](C)C(=O)N[C@@H](Cc1c[nH]cn1)C(=O)N2 [ID10] (HELM PEPTIDE1{A.T.C.D.L.L.S.P.F.K.V.G.H.A.A.C.A.A.H.C.I.A.R.G.K.R.G.G.W.C.N.K.R.A.V.C.N.C.R.K}$PEPTIDE1,PEPTIDE1,3:R3-30:R3|PEPTIDE1,PEPTIDE1,16:R3-36:R3|PEPTIDE1,PEPTIDE1,20:R3-38:R3$$$V2.0; N-terminus and C-terminus assumed; bridges inferred)	16
CC[C@H](C)[C@@H]1NC(=O)[C@@H]2CSSC[C@@H](C(=O)N[C@@H](CCCNC(=N)N)C(=O)N[C@@H](CCCCN)C(=O)O)NC(=O)[C@H](CC(N)=O)NC(=O)[C@@H]3CSSC[C@H](NC(=O)[C@H](C)NC(=O)[C@H](C)NC(=O)[C@H](Cc4c[nH]cn4)NC(=O)CNC(=O)[C@H](C(C)C)NC(=O)CNC(=O)[C@H](Cc4ccccc4)NC(=O)[C@@H]4CCCN4C(=O)[C@H](CO)NC(=O)[C@H](CC(C)C)NC(=O)[C@H](CC(C)C)NC(=O)[C@H](CC(=O)O)NC(=O)[C@@H](NC(=O)[C@@H](NC(=O)[C@H](C)N)[C@@H](C)O)CSSC[C@H](NC(=O)[C@H](Cc4c[nH]c5ccccc45)NC(=O)CNC(=O)CNC(=O)[C@H](CCCNC(=N)N)NC(=O)[C@H](CCCCN)NC(=O)CNC(=O)[C@H](CCCNC(=N)N)NC(=O)[C@H](C)NC1=O)C(=O)N[C@@H](CC(=O)O)C(=O)N[C@@H](CCCCN)C(=O)N[C@@H](CCCNC(=N)N)C(=O)N[C@@H](C)C(=O)N[C@@H](C(C)C)C(=O)N3)C(=O)N[C@@H](C)C(=O)N[C@@H](C)C(=O)N[C@@H](Cc1c[nH]cn1)C(=O)N2 [ID11] (HELM PEPTIDE1{A.T.C.D.L.L.S.P.F.G.V.G.H.A.A.C.A.A.H.C.I.A.R.G.K.R.G.G.W.C.D.K.R.A.V.C.N.C.R.K}$PEPTIDE1,PEPTIDE1,3:R3-30:R3|PEPTIDE1,PEPTIDE1,16:R3-36:R3|PEPTIDE1,PEPTIDE1,20:R3-38:R3$$$V2.0; N-terminus and C-terminus assumed; bridges inferred)	16
